# Patent US7838513B2, “Anti-cancer therapy comprising an H2-blocker, at least one antiinflammatory agent and a cytotoxic agent” (Tiltan Pharma Ltd., priority 2006, dated 2010)
# “Also recorded” adds a separate entry of the source.
# Experiments:
# [1] = test system: mouse mammary carcinoma (EMT6/CTX); assay: Suppression of subcutaneous EMT6/CTX tumor growth in mice (tumor size); format: in vivo, mice of the CB6F1 strain; details: 28 days from tumor cell inoculation; i.p.; levamisole 12 mg/Kg, cimetidine 20 mg/Kg; vs control
# Procedure: In the following exemplary embodiments of the present invention, different pharmaceutical compositions of the invention were tested in vivo for the purpose of suppression of tumor growth in mice. The control group received a vehicle containing only non-active ingredients which was compared to groups which received pharmaceutical compositions comprising different active ingredients as described in detail below. 3.5×10^5 cells of mouse mammary carcinoma (EMT6/CTX) were injected subcutaneously in to 7-8 week-old mice of the CB6F1 strain (a cross between Balbc and C57bl), in the center of their backs. The mice were then marked and divided into groups. Typically, each group consisted of 7 to 8 mice. The tumor size was measured twice a week and plotted in a graph. […] The width measurement was also used as an indication for tumor height, and the 0.52 is a normalizing factor. Mice were injected with a specified pharmaceutical composition, 6 days a week. Injection volume was 0.05 mL per 10 g body weight (25 g mice received 0.125 mL). All injections were performed intraperitoneally. The week was divided into two treatment types, cytotoxic treatment and non-cytotoxic treatment days according to the corresponding composition. […] 98% of final solution volume was measured and 2% solutol (liquid) was added. […] 98% of final solution volume was measured and 2% solutol (liquid) was added. […]
# [2] = test system: tumor growth; details: Example 4 of U.S. Patent Application 20030158118; cited from earlier work
# [3] = test system: tumor growth; details: Experiments 3 and 4 (FIGS. 3 and 4) in WO03/061566; cited from earlier work
Compound,"Effect on tumor growth (tumor size), Example 2, FIG. 2 [1]",Inhibition of tumor growth by Cimetidine by itself [2],Effect of cyclophosphamide alone on tumor growth [3]
CN/C(=N/CCSCc1nc[nH]c1C)NC#N [cimetidine],"neither levamisole (Group 2), nor cimetidine (Group 3), nor their combination (Group 4) had any significant effect on tumor growth; also recorded: did not result in any significant effect on tumor growth; also recorded: neither the H2-blocker (cimetidine) alone, nor levamisole alone demonstrated any significant anti-cancer activity",did not inhibit tumor growth to any significant amount,
O=P1(N(CCCl)CCCl)NCCCO1 (stereo not shown) [cyclophosphamide],,,very moderate effect
c1ccc([C@H]2CN3CCSC3=N2)cc1 [levamisole],"neither levamisole (Group 2), nor cimetidine (Group 3), nor their combination (Group 4) had any significant effect on tumor growth; also recorded: neither the H2-blocker (cimetidine) alone, nor levamisole alone demonstrated any significant anti-cancer activity",,
